Molecules are shown by their SMILES.

Experimental findings from patent US8034548B2, “Methods and materials for assessing prostate cancer therapies” (The Regents of the University of California, priority 2003, dated 2011) are described below.

Experiment [1] concerns the target AR transcription complex on the promoters of PSA and KLK2 (Homo sapiens, UniProt P10275, T878A). The method, then:
Soluble chromatin was prepared after formaldehyde crosslinking and sonication. Specific IgGs against AR, N—CoR, PolII, Ac—H3/4, SRC1, TIF2, AIB1, and PCAF were used to immunoprecipitate protein-bound DNA fragments.

The subject of experiment [2] is LNCaP-AR cells. Nature of the experiment: Affymetrix U133A microarray of induced genes, AR-overexpressing cells. Format: cell-based, human.
Experiment [3] deals with LNCaP cells infected with the empty vector. As to the kind of experiment: in vitro growth in low androgen concentrations, vector control cells. Format: cell-based, human. As to conditions: failed to grow unless supplemented. The text has this:
(§1) To determine if increased AR protein concentration plays a causal role in the HS-to-HR transition, we introduced an epitope-tagged wildtype AR cDNA by retrovirus infection into HS LNCaP human prostate cancer cells. A three-fold increase in AR levels in LNCaP-AR cells mimics the expression difference observed in the LNCaP HS/HR pair studied in the microarray experiment. To test whether increased AR expression causes the HS-to-HR transition, we designed two in vitro assays to mimic the clinical circumstances of HR disease. […] In contrast, LNCaP-AR cells grew in at least 80% lower concentrations of R1881.
(§2) Details of typical in vitro and in vivo growth experiments are as follows: LNCaP (ATCC) and LAPC4 cells were maintained in Iscove's medium supplemented with 10% fetal bovine serum. […] In vivo tumorigenicity was measured by injection of 5×10^5 LAPC4 or 1×10^6 LNCaP cells in 100 μl of Matrigel (Collaborative Biomedical) subcutaneously into the flanks of intact or castrated male SCID mice. Tumor size was measured weekly in three dimensions using caliber as described.^26 AR knockdown was performed by infection of HR LAPC4 with shRNA AR lentivirus. Tumors which grew in castrated mice were explanted, and analyzed by flow cytometry for the percentage of GFP-positive cells. […]

Experiment [4] has as its system LNCaP-AR cells. As to the kind of experiment: in vitro growth in low androgen concentrations, AR-overexpressing cells. As to conditions: compared with 100 pM needed by vector cells. Format: cell-based, human.
Description: as §1, §2

Sequence of AR transcription complex on the promoters of PSA and KLK2 (P10275 whole entry T878A, the tested form may be a part, one chain of several): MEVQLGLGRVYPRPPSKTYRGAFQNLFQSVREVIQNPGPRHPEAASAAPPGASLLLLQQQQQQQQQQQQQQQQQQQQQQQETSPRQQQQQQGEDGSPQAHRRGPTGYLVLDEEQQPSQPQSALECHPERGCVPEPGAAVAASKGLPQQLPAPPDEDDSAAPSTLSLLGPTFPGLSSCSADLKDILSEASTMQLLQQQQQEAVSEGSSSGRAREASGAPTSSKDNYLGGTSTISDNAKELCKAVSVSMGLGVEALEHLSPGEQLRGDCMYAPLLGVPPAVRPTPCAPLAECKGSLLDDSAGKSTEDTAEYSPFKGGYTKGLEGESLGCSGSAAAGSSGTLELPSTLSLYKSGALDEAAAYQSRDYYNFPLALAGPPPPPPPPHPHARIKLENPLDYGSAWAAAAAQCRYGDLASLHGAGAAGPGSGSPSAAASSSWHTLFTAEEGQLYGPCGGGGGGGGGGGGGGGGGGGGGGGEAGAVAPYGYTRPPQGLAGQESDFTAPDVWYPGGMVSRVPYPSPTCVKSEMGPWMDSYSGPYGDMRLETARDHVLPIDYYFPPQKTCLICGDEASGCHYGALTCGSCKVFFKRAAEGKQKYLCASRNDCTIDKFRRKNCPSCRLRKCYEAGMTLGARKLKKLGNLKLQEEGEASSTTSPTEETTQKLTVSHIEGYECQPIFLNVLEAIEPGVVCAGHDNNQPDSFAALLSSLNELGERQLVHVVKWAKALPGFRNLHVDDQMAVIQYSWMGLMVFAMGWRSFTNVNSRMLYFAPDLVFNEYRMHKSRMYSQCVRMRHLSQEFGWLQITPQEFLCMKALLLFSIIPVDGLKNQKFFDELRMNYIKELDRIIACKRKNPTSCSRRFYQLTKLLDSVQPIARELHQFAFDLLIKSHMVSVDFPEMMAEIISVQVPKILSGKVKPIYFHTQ

For the compound `C[C@]1(O)CC[C@H]2[C@@H]3CCC4=CC(=O)CCC4=C3C=C[C@@]21C` [R1881], in experiment [1], the “recruitment of AR and polymerase II to PSA and KLK2 promoters” value is “AR and polymerase II were recruited to both promoters regardless of AR level”. Also, in experiment [2] (increasing doses of R1881), the “total number of androgen-regulated genes” value was > 600 probe sets. Also, in experiment [3], the “R1881 supplement needed for growth in steroid-depleted, charcoal-stripped serum” value is reported as 100 pM. The “lower concentration of R1881 in which cells grew” value in experiment [4] is given as “at least 80%”.

`CC(O)(CS(=O)(=O)c1ccc(F)cc1)C(=O)Nc1ccc(C#N)c(C(F)(F)F)c1` (centres unmarked) [bicalutamide]: the “subset of the total number of androgen-regulated genes induced” value in experiment [2] (LNCaP-AR, 10 μM bicalutamide) is < 10%.
